The source of these data is patent US12630600B2 (MEDIMMUNE LIMITED, priority 2022, dated 2026).

Structures are written as SMILES. Where two headings read alike, the source gives them in different places. Starred links: 1 amine or outer side, 2 acyl side, 3 side chain; linkers in the order of their positions; H or OH if unused. Non-standard residues stand in square brackets, D forms with d. Residues, ends and D or L forms follow the SMILES beside them. Groups on a side chain read outwards from the residue. *: point of attachment. C20 diacid = O=C(O)CCCCCCCCCCCCCCCCCCC(=O)*; C18 diacid = O=C(O)CCCCCCCCCCCCCCCCC(=O)*; Dip = N[C@H](C(=O)O)C(c1ccccc1)c1ccccc1; γGlu = O=C(O)[C@H](CCC(=O)[*:2])N[*:1]; Stearoyl = CCCCCCCCCCCCCCCCCC(=O)*; Palmitoyl = CCCCCCCCCCCCCCCC(=O)*; αMeF = C[C@](N)(Cc1ccccc1)C(=O)O; PEG2 = NCCOCCOCCC(=O)O; AEEA = NCCOCCOCC(=O)O; Aib = CC(C)(N)C(=O)O

The target in test [1] is T1, human glucagon receptor (hGCGR) (Homo sapiens, UniProt P47871).
T1 construct: expressed in transfected cells; host or cells: CHO
T1 sequence (P47871 26-477): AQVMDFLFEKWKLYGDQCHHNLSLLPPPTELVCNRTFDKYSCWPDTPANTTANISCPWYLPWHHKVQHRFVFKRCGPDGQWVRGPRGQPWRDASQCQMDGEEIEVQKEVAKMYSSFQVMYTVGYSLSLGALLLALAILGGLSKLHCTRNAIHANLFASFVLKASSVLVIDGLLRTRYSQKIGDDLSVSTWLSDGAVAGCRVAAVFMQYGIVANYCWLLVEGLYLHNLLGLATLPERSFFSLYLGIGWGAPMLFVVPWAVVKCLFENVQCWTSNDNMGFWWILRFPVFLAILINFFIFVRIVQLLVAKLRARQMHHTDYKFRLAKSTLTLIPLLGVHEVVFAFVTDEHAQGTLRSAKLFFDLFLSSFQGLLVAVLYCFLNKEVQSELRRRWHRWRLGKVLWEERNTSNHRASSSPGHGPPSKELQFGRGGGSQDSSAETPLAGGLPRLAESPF
Kind of test: cAMP production (HTRF) in CHO cells expressing human glucagon receptor. The conditions noted are these: read-out: hGluc-R EC50. The format is cell-based. On the procedure: Cells were re-suspended in assay buffer at a batch-dependent optimized concentration (typically hGLP-1R cells at 1×10^5 cells/mL, hGCGR cells at 2×10^5 cells/mL).
Cells were added to the assay plate using a multidrop dispenser and incubated at room temperature for 30 minutes before measuring the cAMP level using a cAMP dynamic 2 homogeneous time resolved Fluorescence (HTRF) kit (Cisbio Bioassays #62AM4PEJ) following the two-step protocol as per manufacturer's recommendations. In brief, anti-cAMP cryptate (donor fluorophore) and cAMP-d2 (acceptor fluorophore) were made up separately by diluting each 1 in 20 in conjugate and lysis buffer provided in the kit. Anti-cAMP cryptate was added to all wells of the assay plate, followed by cAMP-d2 added to all wells except non-specific binding (NSB) wells (to which conjugate and lysis buffer was added).
Data was transformed to % Delta F as described in the manufacturer's guidelines and analyzed by 4-parameter logistic fit to determine EC50 values.

The target of test [2] is T2, human GLP-1 receptor (hGLP-1R) (Homo sapiens, UniProt P43220).
T2 construct: expressed in transfected cells; host or cells: CHO
T2 sequence (P43220 24-463): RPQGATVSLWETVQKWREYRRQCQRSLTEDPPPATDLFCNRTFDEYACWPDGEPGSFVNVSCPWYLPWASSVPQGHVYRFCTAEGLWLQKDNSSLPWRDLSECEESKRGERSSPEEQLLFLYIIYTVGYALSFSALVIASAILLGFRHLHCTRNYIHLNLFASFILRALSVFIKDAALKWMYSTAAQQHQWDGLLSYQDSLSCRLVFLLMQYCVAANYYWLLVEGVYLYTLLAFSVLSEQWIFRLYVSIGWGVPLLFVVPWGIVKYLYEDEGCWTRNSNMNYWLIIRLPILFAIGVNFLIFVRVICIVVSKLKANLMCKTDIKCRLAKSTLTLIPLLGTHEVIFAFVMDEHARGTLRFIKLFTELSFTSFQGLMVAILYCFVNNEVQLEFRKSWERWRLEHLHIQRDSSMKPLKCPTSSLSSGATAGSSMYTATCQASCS
The experiment in a line: cAMP production (HTRF) in CHO cells expressing human GLP-1 receptor. The conditions noted are these: for EC50: geometric mean, cAMP, read-out: hGLP-1R EC50; for % Relative Potency Ratio: % GLP-1R activity relative to GLP-1 / % GlucR activity relative to glucagon. Type of test: cell-based. On the technique in general: cAMP levels reflect the balance of adenylyl cyclase and phosphodiesterase activity.

The mark [3] stands for this setting: Table 9, peptides modified at position 10, geometric mean, CHO cells.
Setting [4] is: Table 6, modification at position 17, CHO cells expressing hGCGR, geometric mean.

As a reminder, the EC50 is the midpoint of the concentration-response curve. Consider `CC[C@H](C)[C@H](NC(=O)C(C)(C)NC(=O)[C@H](CCCCNC(=O)COCCOCCNC(=O)COCCOCCNC(=O)CC[C@H](NC(=O)CC[C@H](NC(=O)CCCCCCCCCCCCCCCCCCC(=O)O)C(=O)O)C(=O)O)NC(=O)[C@@H](NC(=O)[C@](C)(Cc1ccccc1)NC(=O)[C@H](CC(=O)O)NC(=O)[C@H](CCC(N)=O)NC(=O)[C@H](C)NC(=O)[C@H](C)NC(=O)[C@H](CCCNC(=N)N)NC(=O)[C@H](CO)NC(=O)[C@H](CC(=O)O)NC(=O)[C@H](CC(C)C)NC(=O)[C@](C)(Cc1ccccc1)NC(=O)[C@H](CCCCN)NC(=O)[C@H](CO)NC(=O)[C@@H](NC(=O)[C@H](CC(=O)O)NC(=O)[C@H](CO)NC(=O)[C@@H](NC(=O)[C@](C)(Cc1ccccc1)NC(=O)[C@H](CO)NC(=O)CNC(=O)[C@H](Cc1c[nH]cn1)NC(=O)C(C)(C)NC(=O)[C@@H](N)Cc1c[nH]cn1)[C@@H](C)O)C(C)C)C(C)C)C(=O)N[C@@H](C)C(=O)N[C@@H](CC(N)=O)C(=O)N[C@H](C(=O)NCC(=O)NCC(N)=O)[C@@H](C)O` [Peptide 376] (H-H[Aib]HGS[αMeF]TSDVSK[αMeF]LDSRAAQD[αMeF]VK([AEEA-AEEA-γGlu-γGlu-C20 diacid])[Aib]IANTGG-NH2; N-terminus assumed), for which the concentration for a half-maximal effect (EC50) turned out to be 0.853 nM in test [1] (Table 8, peptides modified at position 24, geometric mean, CHO cells) and 0.156 nM in test [2] (Table 8, peptides modified at position 24, CHO cells). Moreover, the “% Relative Potency Ratio” value in test [2] (Table 8) amounted to 10.8.
Consider `CC[C@H](C)[C@H](NC(=O)C(C)(C)NC(=O)[C@H](CCC(N)=O)NC(=O)[C@@H](NC(=O)[C@](C)(Cc1ccccc1)NC(=O)[C@H](CC(=O)O)NC(=O)[C@H](CCC(N)=O)NC(=O)[C@H](C)NC(=O)[C@H](C)NC(=O)[C@H](CCCNC(=N)N)NC(=O)[C@H](CO)NC(=O)[C@H](CC(=O)O)NC(=O)[C@H](CC(C)C)NC(=O)[C@](C)(Cc1ccccc1)NC(=O)[C@H](CCCCN)NC(=O)[C@H](CO)NC(=O)[C@H](CCCCNC(=O)COCCOCCNC(=O)COCCOCCNC(=O)CC[C@H](NC(=O)CCCCCCCCCCCCCCCCC(=O)O)C(=O)O)NC(=O)[C@H](CC(=O)O)NC(=O)[C@H](CO)NC(=O)[C@@H](NC(=O)[C@](C)(Cc1ccccc1)NC(=O)[C@H](CO)NC(=O)CNC(=O)[C@H](Cc1c[nH]cn1)NC(=O)C(C)(C)NC(=O)[C@@H](N)Cc1c[nH]cn1)[C@@H](C)O)C(C)C)C(=O)N[C@@H](C)C(=O)N[C@@H](CC(N)=O)C(=O)N[C@H](C(N)=O)[C@@H](C)O` [Peptide 392] (H-H[Aib]HGS[αMeF]TSDK([AEEA-AEEA-γGlu-C18 diacid])SK[αMeF]LDSRAAQD[αMeF]VQ[Aib]IANT-NH2), for which the EC50 stood at 6.92 nM in test [1] (setting [3]) and 0.312 nM in test [2] (Table 9, peptides modified at position 10, CHO cells). Besides, the “% Relative Potency Ratio” value in test [2] (Table 9) came out at 43.8.
For `CCCCCCCCCCCCCCCCCC(=O)N[C@@H](CCC(=O)N[C@@H](CCC(=O)NCCOCCOCCC(=O)NCCOCCOCCC(=O)NCCCC[C@H](NC(=O)[C@H](CO)NC(=O)[C@H](CC(=O)O)NC(=O)[C@H](CC(C)C)NC(=O)[C@@H](NC(=O)[C@H](CCCCN)NC(=O)[C@H](CO)NC(=O)[C@@H](NC(=O)[C@H](CC(=O)O)NC(=O)[C@H](CO)NC(=O)[C@@H](NC(=O)[C@](C)(Cc1ccccc1)NC(=O)[C@H](CO)NC(=O)CNC(=O)[C@H](CCC(N)=O)NC(=O)C(C)(C)NC(=O)[C@@H](N)Cc1c[nH]cn1)[C@@H](C)O)C(C)C)C(c1ccccc1)c1ccccc1)C(=O)N[C@@H](C)C(=O)N[C@@H](C)C(=O)N[C@@H](CCC(N)=O)C(=O)N[C@@H](CC(=O)O)C(=O)N[C@@](C)(Cc1ccccc1)C(=O)N[C@H](C(=O)N[C@@H](CCC(=O)O)C(=O)NC(C)(C)C(=O)N[C@@H](CC(C)C)C(=O)N[C@@H](CCC(=O)O)C(=O)N[C@@H](C)C(=O)NCC(=O)NCC(N)=O)C(C)C)C(=O)O)C(=O)O` [Peptide 44] (H-H[Aib]QGS[αMeF]TSDVSK[Dip]LDSK([PEG2-PEG2-γGlu-γGlu-Stearoyl])AAQD[αMeF]VE[Aib]LEAGG-NH2; N-terminus assumed), the EC50 in test [1] (setting [4]) stood at 0.0182 nM; in test [2] (Table 6, modification at position 17, CHO cells expressing hGLP-1R) it was 0.00212 nM. For the same molecule, the “% Relative Potency Ratio” value in test [2] (Table 6) is 17.0.
Regarding `CCCCCCCCCCCCCCCC(=O)N[C@@H](CCC(=O)NCCOCCOCCC(=O)NCCOCCOCCC(=O)NCCCC[C@H](NC(=O)[C@H](CC(=O)O)NC(=O)[C@H](CO)NC(=O)[C@@H](NC(=O)[C@](C)(Cc1ccccc1)NC(=O)[C@H](CO)NC(=O)CNC(=O)[C@H](CCC(N)=O)NC(=O)C(C)(C)NC(=O)[C@@H](N)Cc1c[nH]cn1)[C@@H](C)O)C(=O)N[C@@H](CO)C(=O)N[C@@H](CCCCN)C(=O)N[C@H](C(=O)N[C@@H](CC(C)C)C(=O)N[C@@H](CC(=O)O)C(=O)N[C@@H](CO)C(=O)N[C@@H](CCCNC(=N)N)C(=O)N[C@@H](C)C(=O)N[C@@H](C)C(=O)N[C@@H](CCC(N)=O)C(=O)N[C@@H](CC(=O)O)C(=O)N[C@@](C)(Cc1ccccc1)C(=O)N[C@H](C(=O)N[C@@H](CCC(=O)O)C(=O)N[C@@H](Cc1c[nH]c2ccccc12)C(=O)N[C@H](C(=O)N[C@@H](C)C(=O)N[C@@H](CC(N)=O)C(=O)N[C@H](C(N)=O)[C@@H](C)O)[C@@H](C)CC)C(C)C)[C@@H](C)CC)C(=O)O` [Peptide 396] (H-H[Aib]QGS[αMeF]TSDK([PEG2-PEG2-γGlu-Palmitoyl])SKILDSRAAQD[αMeF]VEWIANT-NH2), the EC50 in test [1] (setting [3]) worked out at 0.0118 nM. Moreover, the “% Relative Potency Ratio” value in test [2] (Table 9) came to 40.2.
For the molecule `CC(C)C[C@H](NC(=O)[C@H](Cc1c[nH]c2ccccc12)NC(=O)[C@H](CCCNC(=N)N)NC(=O)[C@@H](NC(=O)[C@H](Cc1ccccc1)NC(=O)[C@H](CC(=O)O)NC(=O)[C@H](CCCNC(=N)N)NC(=O)[C@H](C)NC(=O)[C@H](CCCNC(=N)N)NC(=O)[C@H](CCCCNC(=O)CC[C@H](NC(=O)CC[C@H](NC(=O)COCCOCCNC(=O)COCCOCCNC(=O)CC[C@H](NC(=O)CC[C@H](NC(=O)CCCCCCCCCCCCCCCCC(=O)O)C(=O)O)C(=O)O)C(=O)O)C(=O)O)NC(=O)[C@H](CO)NC(=O)[C@H](CC(=O)O)NC(=O)[C@H](CC(C)C)NC(=O)[C@](C)(Cc1ccccc1)NC(=O)[C@H](CCCCN)NC(=O)[C@H](CO)NC(=O)[C@@H](NC(=O)[C@H](CC(=O)O)NC(=O)[C@H](CO)NC(=O)[C@@H](NC(=O)[C@H](Cc1ccccc1)NC(=O)[C@@H](NC(=O)CNC(=O)[C@H](CCC(N)=O)NC(=O)C(C)(C)NC(=O)[C@@H](N)Cc1c[nH]cn1)[C@@H](C)O)[C@@H](C)O)C(C)C)C(C)C)C(=O)N[C@@H](CC(C)C)C(=O)N[C@@H](CCC(=O)O)C(=O)NC(C)(C)C(=O)NCC(=O)O` [Peptide 144] (H-H[Aib]QGTFTSDVSK[αMeF]LDSK([γGlu-γGlu-AEEA-AEEA-γGlu-γGlu-C18 diacid])RARDFVRWLLE[Aib]G-OH; N-terminus assumed), the EC50 in test [1] (setting [4]) amounted to 0.702 nM.
As to `CCCCCCCCCCCCCCCCCC(=O)N[C@@H](CCC(=O)N[C@@H](CCC(=O)NCCOCCOCCC(=O)NCCOCCOCCC(=O)NCCCC[C@H](NC(=O)[C@H](CO)NC(=O)[C@H](CC(=O)O)NC(=O)[C@H](CC(C)C)NC(=O)[C@](C)(Cc1ccccc1)NC(=O)[C@H](CCCCN)NC(=O)[C@H](CO)NC(=O)[C@@H](NC(=O)[C@H](CC(=O)O)NC(=O)[C@H](CO)NC(=O)[C@@H](NC(=O)[C@](C)(Cc1ccccc1)NC(=O)[C@H](CO)NC(=O)CNC(=O)[C@H](CCC(N)=O)NC(=O)[C@H](CO)NC(=O)[C@@H](N)Cc1c[nH]cn1)[C@@H](C)O)C(C)C)C(=O)N[C@@H](C)C(=O)N[C@@H](C)C(=O)N[C@@H](CCC(N)=O)C(=O)N[C@@H](CC(=O)O)C(=O)N[C@@](C)(Cc1ccccc1)C(=O)N[C@H](C(=O)N[C@@H](CCC(N)=O)C(=O)NC(C)(C)C(=O)N[C@H](C(=O)N[C@@H](C)C(=O)N[C@@H](CC(N)=O)C(=O)N[C@H](C(N)=O)[C@@H](C)O)[C@@H](C)CC)C(C)C)C(=O)O)C(=O)O` [Peptide 82] (H-HSQGS[αMeF]TSDVSK[αMeF]LDSK([PEG2-PEG2-γGlu-γGlu-Stearoyl])AAQD[αMeF]VQ[Aib]IANT-NH2; N-terminus assumed), in test [1] (setting [4]), the EC50 is 0.00777 nM.
Regarding `CCCCCCCCCCCCCCCC(=O)N[C@@H](CCC(=O)NCCOCCOCCC(=O)NCCOCCOCCC(=O)NCCCC[C@H](NC(=O)[C@H](CC(=O)O)NC(=O)[C@H](CO)NC(=O)[C@@H](NC(=O)[C@H](Cc1ccccc1)NC(=O)[C@H](CO)NC(=O)CNC(=O)[C@H](CCC(N)=O)NC(=O)C(C)(C)NC(=O)[C@@H](N)Cc1c[nH]cn1)[C@@H](C)O)C(=O)N[C@@H](CO)C(=O)N[C@@H](CCCCN)C(=O)N[C@H](C(=O)N[C@@H](CC(C)C)C(=O)N[C@@H](CC(=O)O)C(=O)N[C@@H](CO)C(=O)N[C@@H](CCCNC(=N)N)C(=O)N[C@@H](C)C(=O)N[C@@H](C)C(=O)N[C@@H](CCC(N)=O)C(=O)N[C@@H](CC(=O)O)C(=O)N[C@@H](Cc1ccccc1)C(=O)N[C@H](C(=O)N[C@@H](CCC(=O)O)C(=O)N[C@@H](Cc1c[nH]c2ccccc12)C(=O)N[C@H](C(=O)N[C@@H](C)C(=O)N[C@@H](CC(N)=O)C(=O)N[C@H](C(N)=O)[C@@H](C)O)[C@@H](C)CC)C(C)C)[C@@H](C)CC)C(=O)O` [Peptide 395], the EC50 in test [1] (setting [3]) is 0.00955 nM.
